Results as given in ChEMBL document CHEMBL5465560, “Selectivity Literature for EUbOPEN Chemogenomic Library” (2024).

Legend:
[1] = target: Calcium/calmodulin-dependent protein kinase type II subunit gamma (Homo sapiens) (UniProt Q13555); conditions: at 10 µM
[2] = target: Serine/threonine-protein kinase 10 (Homo sapiens) (UniProt O94804); test: Selectivity interaction (KinomeScan (DiscoverX)) EUB0000229b STK10; conditions: at 10 µM
[3] = target: Mitogen-activated protein kinase kinase kinase 14 (Homo sapiens) (UniProt Q99558); test: Selectivity interaction (KinomeScan (DiscoverX)) EUB0000229b MAP3K14; conditions: at 10 µM
[4] = target: T1, Membrane-associated tyrosine- and threonine-specific cdc2-inhibitory kinase (Homo sapiens) (UniProt Q99640); test: Selectivity interaction (KinomeScan (DiscoverX)) EUB0000655a PKMYT1; conditions: at 10 µM
T1 sequence (whole entry): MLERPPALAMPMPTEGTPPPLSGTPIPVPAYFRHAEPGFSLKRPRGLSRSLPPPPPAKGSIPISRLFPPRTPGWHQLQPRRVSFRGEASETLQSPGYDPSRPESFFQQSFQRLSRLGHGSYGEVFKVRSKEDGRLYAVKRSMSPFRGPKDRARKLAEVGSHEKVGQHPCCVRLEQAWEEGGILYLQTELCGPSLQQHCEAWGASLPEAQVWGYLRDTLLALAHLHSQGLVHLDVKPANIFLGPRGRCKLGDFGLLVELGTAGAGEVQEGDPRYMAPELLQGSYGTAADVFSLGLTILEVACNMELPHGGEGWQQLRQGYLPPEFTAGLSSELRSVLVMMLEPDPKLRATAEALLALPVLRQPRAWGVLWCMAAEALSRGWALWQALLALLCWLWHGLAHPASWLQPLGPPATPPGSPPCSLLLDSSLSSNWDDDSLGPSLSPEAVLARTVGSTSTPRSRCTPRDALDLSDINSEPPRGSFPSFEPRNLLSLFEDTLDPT

[5] = target: T2, MAP/microtubule affinity-regulating kinase 4 (Homo sapiens) (UniProt Q96L34); test: Selectivity interaction (KinomeScan (DiscoverX)) EUB0001079a MARK4; conditions: at 1 µM
T2 sequence (whole entry): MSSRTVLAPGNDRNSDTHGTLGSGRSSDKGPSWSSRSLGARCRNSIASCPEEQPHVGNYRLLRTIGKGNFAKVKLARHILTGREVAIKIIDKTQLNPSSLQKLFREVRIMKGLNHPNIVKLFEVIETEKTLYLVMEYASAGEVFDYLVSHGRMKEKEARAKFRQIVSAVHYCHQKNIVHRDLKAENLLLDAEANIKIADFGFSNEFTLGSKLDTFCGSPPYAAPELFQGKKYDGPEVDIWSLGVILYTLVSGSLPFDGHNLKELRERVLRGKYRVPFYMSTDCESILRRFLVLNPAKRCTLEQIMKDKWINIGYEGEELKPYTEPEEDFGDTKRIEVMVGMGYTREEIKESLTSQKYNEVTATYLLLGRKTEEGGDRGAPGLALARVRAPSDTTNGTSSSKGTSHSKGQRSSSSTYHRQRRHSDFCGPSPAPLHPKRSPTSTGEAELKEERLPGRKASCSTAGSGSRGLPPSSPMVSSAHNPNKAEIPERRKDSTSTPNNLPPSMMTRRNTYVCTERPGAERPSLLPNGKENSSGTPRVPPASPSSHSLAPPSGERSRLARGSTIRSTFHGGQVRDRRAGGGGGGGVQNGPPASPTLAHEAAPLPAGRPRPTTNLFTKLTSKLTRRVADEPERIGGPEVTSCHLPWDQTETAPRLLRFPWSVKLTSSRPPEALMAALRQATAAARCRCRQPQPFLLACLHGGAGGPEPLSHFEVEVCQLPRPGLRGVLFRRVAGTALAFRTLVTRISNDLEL

[6] = target: RAC-alpha serine/threonine-protein kinase (Homo sapiens, UniProt P31749); test: Selectivity interaction (Millipore kinase profiler) EUB0000124b AKT1; conditions: at 10 µM
[7] = target: Fibroblast growth factor receptor 1 (Homo sapiens, UniProt P11362); test: Selectivity interaction (KinaseProfiler screening (Millipore)) EUB0000601a FGFR1; conditions: at 3 µM
[8] = target: T3, Phosphatidylinositol 5-phosphate 4-kinase type-2 beta (Homo sapiens) (UniProt P78356); test: Selectivity interaction (ActivX KiNativ screen (kinase selectivity in THP-1 cell lysates)) EUB0000639a PIP4K2B; assay type: subcellular; conditions: lysate
T3 sequence (whole entry): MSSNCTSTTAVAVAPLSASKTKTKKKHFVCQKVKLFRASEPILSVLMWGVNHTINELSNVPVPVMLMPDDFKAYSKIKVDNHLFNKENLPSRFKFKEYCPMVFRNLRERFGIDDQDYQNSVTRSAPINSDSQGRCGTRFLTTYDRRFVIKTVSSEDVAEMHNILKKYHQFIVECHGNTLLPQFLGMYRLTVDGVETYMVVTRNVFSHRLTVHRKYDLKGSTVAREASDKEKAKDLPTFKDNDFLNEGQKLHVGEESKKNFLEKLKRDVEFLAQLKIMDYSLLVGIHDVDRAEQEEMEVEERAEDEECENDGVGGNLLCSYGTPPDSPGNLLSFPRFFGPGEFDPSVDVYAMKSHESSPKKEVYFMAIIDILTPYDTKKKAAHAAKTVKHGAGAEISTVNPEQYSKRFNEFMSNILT

[9] = target: T4, Megakaryocyte-associated tyrosine-protein kinase (Homo sapiens) (UniProt P42679); test: Selectivity interaction (KinomeScan (DiscoverX)) EUB0001049a MATK; conditions: at 1 µM
T4 sequence (whole entry): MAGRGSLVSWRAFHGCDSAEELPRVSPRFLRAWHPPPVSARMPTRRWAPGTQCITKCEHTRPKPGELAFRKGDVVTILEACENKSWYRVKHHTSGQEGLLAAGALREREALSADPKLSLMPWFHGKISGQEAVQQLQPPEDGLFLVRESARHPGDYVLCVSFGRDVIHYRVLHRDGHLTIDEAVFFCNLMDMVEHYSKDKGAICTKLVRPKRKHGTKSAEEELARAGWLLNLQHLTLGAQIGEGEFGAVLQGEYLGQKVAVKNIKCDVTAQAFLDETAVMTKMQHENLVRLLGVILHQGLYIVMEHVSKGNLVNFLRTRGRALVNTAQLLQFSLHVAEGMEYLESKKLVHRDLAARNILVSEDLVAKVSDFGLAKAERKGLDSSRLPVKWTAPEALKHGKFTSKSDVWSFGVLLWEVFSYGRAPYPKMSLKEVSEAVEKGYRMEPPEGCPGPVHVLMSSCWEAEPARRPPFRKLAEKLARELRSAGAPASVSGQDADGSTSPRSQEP

[10] = target: Tyrosine-protein kinase Blk (Homo sapiens) (UniProt P51451); test: Selectivity interaction (KinomeScan (DiscoverX)) EUB0001049a BLK; conditions: at 1 µM
[11] = target: Proto-oncogene tyrosine-protein kinase Src (Homo sapiens, UniProt P12931); test: Selectivity interaction (KinomeScan (DiscoverX)) EUB0000618a SRC; conditions: at 10 µM
[12] = target: MAP/microtubule affinity-regulating kinase 3 (Homo sapiens) (UniProt P27448); test: Selectivity interaction (KinomeScan (DiscoverX)) EUB0001619a MARK3; conditions: at 1 µM
Sequence of MAP/microtubule affinity-regulating kinase 3 (Homo sapiens) (P27448 whole entry, looked up): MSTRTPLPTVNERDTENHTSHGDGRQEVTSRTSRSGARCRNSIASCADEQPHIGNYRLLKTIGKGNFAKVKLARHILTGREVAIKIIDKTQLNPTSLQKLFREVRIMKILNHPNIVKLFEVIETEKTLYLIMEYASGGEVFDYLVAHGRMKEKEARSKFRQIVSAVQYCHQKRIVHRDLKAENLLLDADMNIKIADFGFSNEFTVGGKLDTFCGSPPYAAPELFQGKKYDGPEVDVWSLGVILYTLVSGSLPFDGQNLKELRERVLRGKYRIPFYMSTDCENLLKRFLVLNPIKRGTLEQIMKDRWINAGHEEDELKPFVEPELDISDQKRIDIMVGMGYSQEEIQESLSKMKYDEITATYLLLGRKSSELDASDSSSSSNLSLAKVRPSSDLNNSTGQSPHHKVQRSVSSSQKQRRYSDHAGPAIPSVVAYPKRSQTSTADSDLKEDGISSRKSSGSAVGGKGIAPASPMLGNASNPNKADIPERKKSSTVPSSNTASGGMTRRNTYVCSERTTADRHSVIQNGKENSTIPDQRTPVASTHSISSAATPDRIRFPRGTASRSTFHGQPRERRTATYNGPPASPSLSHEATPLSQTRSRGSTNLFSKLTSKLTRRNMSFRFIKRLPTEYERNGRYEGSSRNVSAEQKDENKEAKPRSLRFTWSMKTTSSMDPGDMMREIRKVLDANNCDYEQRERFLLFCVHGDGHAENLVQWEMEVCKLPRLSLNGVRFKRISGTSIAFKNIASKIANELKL

Sequence of Fibroblast growth factor receptor 1 (P11362 22-822 limits assumed): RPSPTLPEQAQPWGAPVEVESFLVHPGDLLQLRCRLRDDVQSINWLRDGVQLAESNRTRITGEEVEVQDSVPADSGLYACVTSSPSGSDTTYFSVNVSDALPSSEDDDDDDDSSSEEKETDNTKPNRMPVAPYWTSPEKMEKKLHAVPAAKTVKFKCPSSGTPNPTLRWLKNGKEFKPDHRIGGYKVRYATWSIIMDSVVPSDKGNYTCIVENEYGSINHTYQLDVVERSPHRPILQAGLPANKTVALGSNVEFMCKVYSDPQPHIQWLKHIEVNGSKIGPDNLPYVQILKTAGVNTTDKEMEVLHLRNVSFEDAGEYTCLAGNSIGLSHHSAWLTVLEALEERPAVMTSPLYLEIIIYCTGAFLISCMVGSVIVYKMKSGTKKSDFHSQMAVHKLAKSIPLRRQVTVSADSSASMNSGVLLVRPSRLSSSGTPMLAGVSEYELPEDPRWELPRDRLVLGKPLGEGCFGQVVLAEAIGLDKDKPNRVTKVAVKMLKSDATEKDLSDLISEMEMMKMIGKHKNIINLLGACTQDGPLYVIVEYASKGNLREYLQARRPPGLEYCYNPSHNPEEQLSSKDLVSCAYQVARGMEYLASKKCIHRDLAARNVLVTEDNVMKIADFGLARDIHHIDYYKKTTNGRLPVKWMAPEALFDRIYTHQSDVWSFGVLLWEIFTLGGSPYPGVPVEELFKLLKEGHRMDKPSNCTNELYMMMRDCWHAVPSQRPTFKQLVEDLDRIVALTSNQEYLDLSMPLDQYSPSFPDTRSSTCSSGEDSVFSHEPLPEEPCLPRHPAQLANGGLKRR
Sequence of Proto-oncogene tyrosine-protein kinase Src (P12931 2-536 limits assumed): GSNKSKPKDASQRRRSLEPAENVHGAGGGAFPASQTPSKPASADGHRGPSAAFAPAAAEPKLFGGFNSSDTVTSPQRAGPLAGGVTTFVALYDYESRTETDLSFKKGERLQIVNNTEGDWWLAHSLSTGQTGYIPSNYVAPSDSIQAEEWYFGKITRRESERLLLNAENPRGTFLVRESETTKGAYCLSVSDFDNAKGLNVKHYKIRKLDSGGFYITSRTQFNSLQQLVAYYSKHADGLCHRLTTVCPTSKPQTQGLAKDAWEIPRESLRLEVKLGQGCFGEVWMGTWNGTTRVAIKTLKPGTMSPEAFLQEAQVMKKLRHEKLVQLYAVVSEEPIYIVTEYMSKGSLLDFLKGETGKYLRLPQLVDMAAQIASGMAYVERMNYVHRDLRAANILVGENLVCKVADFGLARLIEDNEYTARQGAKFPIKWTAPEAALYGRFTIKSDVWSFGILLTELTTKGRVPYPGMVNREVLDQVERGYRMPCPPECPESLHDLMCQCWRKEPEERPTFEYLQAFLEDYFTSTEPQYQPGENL
Sequence of Serine/threonine-protein kinase 10 (Homo sapiens) (O94804 whole entry, looked up): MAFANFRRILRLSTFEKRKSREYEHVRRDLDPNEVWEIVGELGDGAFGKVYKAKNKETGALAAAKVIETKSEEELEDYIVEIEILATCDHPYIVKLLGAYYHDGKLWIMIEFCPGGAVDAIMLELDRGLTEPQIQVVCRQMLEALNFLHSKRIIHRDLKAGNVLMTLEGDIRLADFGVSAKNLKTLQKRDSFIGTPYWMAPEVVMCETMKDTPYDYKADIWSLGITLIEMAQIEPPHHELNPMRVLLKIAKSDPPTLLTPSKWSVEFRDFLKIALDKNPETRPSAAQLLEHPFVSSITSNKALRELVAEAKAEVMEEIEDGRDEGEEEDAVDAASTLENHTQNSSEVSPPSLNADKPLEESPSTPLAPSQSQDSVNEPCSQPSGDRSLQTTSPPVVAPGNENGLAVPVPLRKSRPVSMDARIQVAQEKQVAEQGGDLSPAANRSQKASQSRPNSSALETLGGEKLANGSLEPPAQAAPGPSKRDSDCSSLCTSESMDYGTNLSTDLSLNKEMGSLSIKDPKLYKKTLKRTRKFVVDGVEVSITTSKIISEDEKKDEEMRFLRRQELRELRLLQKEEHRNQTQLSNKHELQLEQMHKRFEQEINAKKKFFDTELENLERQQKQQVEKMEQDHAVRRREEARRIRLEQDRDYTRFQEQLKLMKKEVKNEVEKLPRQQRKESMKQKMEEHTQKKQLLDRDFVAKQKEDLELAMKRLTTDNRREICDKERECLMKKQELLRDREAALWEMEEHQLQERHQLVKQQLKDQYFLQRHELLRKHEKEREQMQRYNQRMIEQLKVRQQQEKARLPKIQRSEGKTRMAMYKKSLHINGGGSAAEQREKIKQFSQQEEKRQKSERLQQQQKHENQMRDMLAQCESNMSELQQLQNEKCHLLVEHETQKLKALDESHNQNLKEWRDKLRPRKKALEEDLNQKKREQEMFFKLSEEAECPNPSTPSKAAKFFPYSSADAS
Sequence of Calcium/calmodulin-dependent protein kinase type II subunit gamma (Homo sapiens) (Q13555 whole entry): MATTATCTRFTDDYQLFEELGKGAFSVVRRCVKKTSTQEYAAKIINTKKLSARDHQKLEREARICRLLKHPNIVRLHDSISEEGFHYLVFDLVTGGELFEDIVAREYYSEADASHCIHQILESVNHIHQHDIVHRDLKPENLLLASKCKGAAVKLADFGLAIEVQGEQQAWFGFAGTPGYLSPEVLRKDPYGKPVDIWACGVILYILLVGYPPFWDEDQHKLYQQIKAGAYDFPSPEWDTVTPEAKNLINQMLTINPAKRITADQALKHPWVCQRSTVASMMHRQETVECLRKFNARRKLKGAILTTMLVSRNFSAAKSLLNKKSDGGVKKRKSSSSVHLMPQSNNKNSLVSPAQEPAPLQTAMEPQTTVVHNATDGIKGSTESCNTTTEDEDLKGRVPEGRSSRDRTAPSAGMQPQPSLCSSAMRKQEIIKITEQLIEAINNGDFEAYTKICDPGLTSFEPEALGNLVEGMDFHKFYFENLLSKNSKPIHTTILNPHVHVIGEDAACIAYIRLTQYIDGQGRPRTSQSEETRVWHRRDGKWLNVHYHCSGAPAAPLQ
Sequence of RAC-alpha serine/threonine-protein kinase (P31749 whole entry): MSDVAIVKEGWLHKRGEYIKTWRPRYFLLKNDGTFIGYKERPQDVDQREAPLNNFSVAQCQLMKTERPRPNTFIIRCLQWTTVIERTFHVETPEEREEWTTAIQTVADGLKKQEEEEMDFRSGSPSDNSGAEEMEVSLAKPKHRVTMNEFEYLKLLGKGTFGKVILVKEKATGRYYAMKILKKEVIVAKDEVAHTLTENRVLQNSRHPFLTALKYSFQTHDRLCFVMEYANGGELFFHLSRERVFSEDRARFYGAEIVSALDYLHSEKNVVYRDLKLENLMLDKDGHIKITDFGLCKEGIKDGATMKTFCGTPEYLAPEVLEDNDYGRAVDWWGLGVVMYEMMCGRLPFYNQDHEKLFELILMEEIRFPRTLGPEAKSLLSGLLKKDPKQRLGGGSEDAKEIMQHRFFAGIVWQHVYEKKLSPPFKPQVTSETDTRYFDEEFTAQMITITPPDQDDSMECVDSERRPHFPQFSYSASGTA
Sequence of Tyrosine-protein kinase Blk (Homo sapiens) (P51451 2-505 limits assumed): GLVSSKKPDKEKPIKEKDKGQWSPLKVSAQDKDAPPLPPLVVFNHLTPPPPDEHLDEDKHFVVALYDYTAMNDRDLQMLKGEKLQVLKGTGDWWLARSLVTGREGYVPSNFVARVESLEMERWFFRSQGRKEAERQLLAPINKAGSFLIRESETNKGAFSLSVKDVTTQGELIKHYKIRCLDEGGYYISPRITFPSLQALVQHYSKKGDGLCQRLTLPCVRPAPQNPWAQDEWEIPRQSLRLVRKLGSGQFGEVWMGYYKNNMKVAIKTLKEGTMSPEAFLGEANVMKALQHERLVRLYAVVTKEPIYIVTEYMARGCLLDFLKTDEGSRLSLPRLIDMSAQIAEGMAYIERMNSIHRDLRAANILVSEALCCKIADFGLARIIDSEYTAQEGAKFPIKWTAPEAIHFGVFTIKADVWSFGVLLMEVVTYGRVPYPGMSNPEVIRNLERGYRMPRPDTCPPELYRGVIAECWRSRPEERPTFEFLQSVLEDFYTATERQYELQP

## CCN(CC)CCCCNc1ncc2cc(-c3cc(OC)cc(OC)c3)c(NC(=O)NC(C)(C)C)nc2n1
[1]
  % of control: 100%

## COc1cc(N(C)c2ccnc3ccc(C(F)(F)F)cc23)cc(OC)c1OC
[2]
  % binding: 84%
[3]
  % binding: 100%

## CN(C)CCOc1ccc(-c2nc(-c3ccncc3)c(-c3ccc4c(c3)CC/C4=N\O)[nH]2)cc1
[4]
  % of control: 100%

## Nc1cnc(N2CCc3cc(S(=O)(=O)Nc4c(F)cc(Cl)cc4F)cc(N4CCCC4=O)c32)nc1 [TP-020n]
[5]
  % of control: 79%

## CC(=O)Nc1cccc(-n2c(=O)n(C3CC3)c(=O)c3c(Nc4ccc(I)cc4F)n(C)c(=O)c(C)c32)c1
[6]
  % of control: 107%

## CCc1cc(Nc2nccc(-c3c(-c4ccc(OC)c(C(=O)Nc5c(F)cccc5F)c4)nc4ccccn34)n2)c(OC)cc1N1CCC(N2CCN(S(C)(=O)=O)CC2)CC1
[7]
  % of inhibition: 68%

## CC[C@@H]1[C@H](F)C(=O)N[C@@H]1COc1nccc2cc(C(N)=O)c(OC)cc12 [ZIMLOVISERTIB]
[8]; at 0.01 µM
  % of inhibition: 11.7%
[8]; at 0.04 µM
  % of inhibition: -9.5%
[8]; at 0.2 µM
  % of inhibition: -6.6%
[8]; at 1 µM
  % of inhibition: 4%
[8]; at 5 µM
  % of inhibition: 0.1%

## COc1cc(Nc2nc(C)cc(-c3cnn4nc(OC)ccc34)n2)cc(C(F)(F)F)c1
[9]
  % of control: 100%
[10]
  % of control: 100%

## O[C@H]1CC[C@H](Nc2ncc3nc(Nc4c(F)cc(F)cc4F)n([C@H]4CCOC4)c3n2)CC1
[11]
  % of control: 72%

## N#Cc1cccc(-c2c[nH]c3ncnc(N4CCOCC4)c23)c1
[12]
  % of control: 100%
